These results are taken from patent US7601847B2, “Preparation and purification of 4-(indazol-3-yl)phenols” (Wyeth, priority 2004, dated 2009).

For orientation: solubility means the concentration that dissolves in the medium under given conditions.

A short description of this data set: relative solubility in a mixture of methanol and water. Format: physicochemical. The settings on record: mixture of methanol and water (57:43 v/v); for solubility: methanol/water mixture (57:43 v/v), aqueous with cosolvent or surfactant or cyclodextrin.

Each structure is given as a SMILES string. Values after ≈ are worked out from the molar mass of the structure shown.

For the compound `C=CCn1nc(-c2ccc(O)cc2O)c2cccc(C(F)(F)F)c21` [I, 4-[1-allyl-7-(trifluoromethyl)-1H-indazol-3-yl]benzene-1,3-diol], the solubility came to 6 mg/mL (≈ 17.9 mM).

On to `C=CCn1nc2c(C(F)(F)F)cccc2c1-c1ccc(O)cc1O` [VI], for which the solubility amounted to 140 mg/mL (≈ 419 mM) and the “difference in solubility in favor of the impurity (VI vs compound I)” value turned out to be 20 ×.
